Laboratory results as given in PubChem BioAssay AID1259407 (Chemical Carcinogenesis Research Information System (CCRIS), 2018).
The source made the active and inactive calls. The rule behind the calls is not given here. Where a SMILES comes first, the peptide text is derived from it. The star is where a group is joined. For = O=C*

Tested on: CCRIS mutagenicity, Ames/micronucleus/aberration tests
Experiment: CCRIS mutagenicity studies
[1] = Test System: AMES SALMONELLA TYPHIMURIUM, Strain/Indicator: TA98, Metabolic Activation: NONE, Method: STANDARD PLATE
[2] = Test System: AMES SALMONELLA TYPHIMURIUM, Strain/Indicator: TA100, Metabolic Activation: NONE, Method: STANDARD PLATE
[3] = Test System: AMES SALMONELLA TYPHIMURIUM, Strain/Indicator: TA1535, Metabolic Activation: NONE, Method: STANDARD PLATE
[4] = Test System: AMES SALMONELLA TYPHIMURIUM, Strain/Indicator: TA1537, Metabolic Activation: NONE, Method: STANDARD PLATE
[5] = Test System: AMES SALMONELLA TYPHIMURIUM, Strain/Indicator: TA98, Metabolic Activation: RAT LIVER S-9, AROCLOR 1254, Method: STANDARD PLATE
[6] = Test System: AMES SALMONELLA TYPHIMURIUM, Strain/Indicator: TA100, Metabolic Activation: NONE, Method: PREINCUBATION

With `CSCC[C@H](NC=O)C(=O)N[C@@H](Cc1ccccc1)C(=O)O` (For-Met-Phe-OH) the mutagenic call [1] was “inactive; negative”, the mutagenic call (Test System: AMES SALMONELLA TYPHIMURIUM, Strain/Indicator: TA98, Metabolic Activation: RAT, LIVER, S-9, AROCLOR 1254, Method: STANDARD PLATE) was “inactive; negative” and the mutagenic call [2] was “inactive; negative”. For the same compound, the mutagenic call (Test System: AMES SALMONELLA TYPHIMURIUM, Strain/Indicator: TA100, Metabolic Activation: RAT, LIVER, S-9, AROCLOR 1254, Method: STANDARD PLATE) was “inactive; negative”, the mutagenic call [3] was “inactive; negative” and the mutagenic call (Test System: AMES SALMONELLA TYPHIMURIUM, Strain/Indicator: TA1535, Metabolic Activation: RAT, LIVER, S-9, AROCLOR 1254, Method: STANDARD PLATE) was “inactive; negative”. The mutagenic call [4] was “inactive; negative” and the mutagenic call (Test System: AMES SALMONELLA TYPHIMURIUM, Strain/Indicator: TA1537, Metabolic Activation: RAT, LIVER, S-9, AROCLOR 1254, Method: STANDARD PLATE) was “inactive; negative”.
In the case of `O=C(N/N=C/c1ccc([N+](=O)[O-])o1)c1ccc(O)cc1`, the mutagenic call (Test System: AMES SALMONELLA TYPHIMURIUM, Strain/Indicator: TA100(FR1), Metabolic Activation: NONE, Method: STANDARD PLATE) is reported as “active; positive”, the mutagenic call (Test System: AMES SALMONELLA TYPHIMURIUM, Strain/Indicator: TA100(FR1), Metabolic Activation: RAT, LIVER, S-9, PHENOBARBITAL AND 3-METHYLCHOLANTHRENE, Method: STANDARD PLATE) is reported as “active; positive” and the mutagenic call [2] is reported as “active; positive”. For the same compound, the mutagenic call (Test System: AMES SALMONELLA TYPHIMURIUM, Strain/Indicator: TA100, Metabolic Activation: RAT, LIVER, S-9, PHENOBARBITAL AND 3-METHYLCHOLANTHRENE, Method: STANDARD PLATE) was “active; positive”, the mutagenic call (Test System: CHINESE HAMSTER V-79, Strain/Indicator: V-79/6-THIOGUANINE, Metabolic Activation: NONE) was “inactive; negative” and the mutagenic call (Test System: CHINESE HAMSTER V-79, Strain/Indicator: V-79/6-THIOGUANINE, Metabolic Activation: RAT, LIVER, HEPATOCYTES) was “inactive; negative”. The mutagenic call (Test System: CHINESE HAMSTER V-79, Strain/Indicator: V-79/OUABAIN, Metabolic Activation: NONE) was “inactive; negative” and the mutagenic call (Test System: CHINESE HAMSTER V-79, Strain/Indicator: V-79/OUABAIN, Metabolic Activation: RAT, LIVER, HEPATOCYTES) was “inactive; negative”.
In the case of `COc1ccc(N=Nc2ccc(N(C)C)cc2)cc1`, the mutagenic call [1] is reported as “active; positive”, the mutagenic call [5] is reported as “active; positive” and the mutagenic call (Test System: AMES SALMONELLA TYPHIMURIUM, Strain/Indicator: TA1538, Metabolic Activation: NONE, Method: STANDARD PLATE) is reported as “active; positive”. The mutagenic call (Test System: AMES SALMONELLA TYPHIMURIUM, Strain/Indicator: TA1538, Metabolic Activation: RAT LIVER S-9, AROCLOR 1254, Method: STANDARD PLATE) was “active; positive”.
In the case of `O=C1C2(Cl)C3(Cl)C4(Cl)C(Cl)(Cl)C5(Cl)C3(Cl)C1(Cl)C5(Cl)C24Cl` (configuration not stated), the mutagenic call (End Point: IN VITRO CHROMOSOMAL ABERRATIONS, Test System: CHINESE HAMSTER OVARY CELLS, Metabolic Activation: NONE) is reported as “inactive; negative” and the mutagenic call (End Point: IN VITRO CHROMOSOMAL ABERRATIONS, Test System: CHINESE HAMSTER OVARY CELLS, Metabolic Activation: RAT, LIVER, S-9, AROCLOR 1254) is reported as “inactive; negative”.
`CC(C)[C@]12CC(=O)[C@H](C)[C@H]1C2` was tested, and the mutagenic call (Test System: AMES SALMONELLA TYPHIMURIUM, Strain/Indicator: TA98, Metabolic Activation: HAMSTER LIVER S-9, AROCLOR 1254, Method: STANDARD PLATE) was “inactive; negative”, the mutagenic call [1] was “inactive; negative” and the mutagenic call [5] was “inactive; negative”. For the same compound, the mutagenic call (Test System: AMES SALMONELLA TYPHIMURIUM, Strain/Indicator: TA100, Metabolic Activation: HAMSTER LIVER S-9, AROCLOR 1254, Method: STANDARD PLATE) was “inactive; negative”, the mutagenic call [2] was “inactive; negative” and the mutagenic call (Test System: AMES SALMONELLA TYPHIMURIUM, Strain/Indicator: TA100, Metabolic Activation: RAT LIVER S-9, AROCLOR 1254, Method: STANDARD PLATE) was “inactive; negative”. For the same compound, the mutagenic call (Test System: AMES SALMONELLA TYPHIMURIUM, Strain/Indicator: TA102, Metabolic Activation: HAMSTER LIVER S-9, AROCLOR 1254, Method: STANDARD PLATE) was “inactive; negative”, the mutagenic call (Test System: AMES SALMONELLA TYPHIMURIUM, Strain/Indicator: TA102, Metabolic Activation: NONE, Method: STANDARD PLATE) was “inactive; negative” and the mutagenic call (Test System: AMES SALMONELLA TYPHIMURIUM, Strain/Indicator: TA102, Metabolic Activation: RAT LIVER S-9, AROCLOR 1254, Method: STANDARD PLATE) was “inactive; negative”. The mutagenic call (Test System: AMES SALMONELLA TYPHIMURIUM, Strain/Indicator: TA1535, Metabolic Activation: HAMSTER LIVER S-9, AROCLOR 1254, Method: STANDARD PLATE) was “inactive; negative”, the mutagenic call [3] was “inactive; negative” and the mutagenic call (Test System: AMES SALMONELLA TYPHIMURIUM, Strain/Indicator: TA1535, Metabolic Activation: RAT LIVER S-9, AROCLOR 1254, Method: STANDARD PLATE) was “inactive; negative”. The mutagenic call (Test System: AMES SALMONELLA TYPHIMURIUM, Strain/Indicator: TA1537, Metabolic Activation: HAMSTER LIVER S-9, AROCLOR 1254, Method: STANDARD PLATE) was “inactive; negative”, the mutagenic call [4] was “inactive; negative” and the mutagenic call (Test System: AMES SALMONELLA TYPHIMURIUM, Strain/Indicator: TA1537, Metabolic Activation: RAT LIVER S-9, AROCLOR 1254, Method: STANDARD PLATE) was “inactive; negative”. The mutagenic call (Test System: Mouse lymphoma, Strain/Indicator: L5178Y (tk+/tk-), Metabolic Activation: None, Method: Suspension/plate) was “inactive; negative” and the mutagenic call (Test System: Mouse lymphoma, Strain/Indicator: L5178Y (tk+/tk-), Metabolic Activation: Rat, Liver, S-9, Aroclor 1254, Method: Suspension/plate) was “active; equivocal (previous evaluation positive)”.
In the case of `N[C@@H](CS/C=C/Cl)C(=O)O`, the mutagenic call [6] is reported as “inactive; negative” and the mutagenic call (Test System: AMES SALMONELLA TYPHIMURIUM, Strain/Indicator: TA2638, Metabolic Activation: NONE, Method: PREINCUBATION) is reported as “active; positive”.
In the case of `CCCCCCCCC1CO1` (configuration not stated), the mutagenic call (Test System: AMES SALMONELLA TYPHIMURIUM, Strain/Indicator: TA97, Metabolic Activation: HAMSTER, LIVER, S-9, AROCLOR 1254 (10% & 30%), Method: PREINCUBATION) is reported as “inactive; negative”, the mutagenic call (Test System: AMES SALMONELLA TYPHIMURIUM, Strain/Indicator: TA97, Metabolic Activation: NONE, Method: PREINCUBATION) is reported as “inactive; negative” and the mutagenic call (Test System: AMES SALMONELLA TYPHIMURIUM, Strain/Indicator: TA97, Metabolic Activation: RAT, LIVER, S-9, AROCLOR 1254 (10% & 30%), Method: PREINCUBATION) is reported as “inactive; negative”. The mutagenic call (Test System: AMES SALMONELLA TYPHIMURIUM, Strain/Indicator: TA98, Metabolic Activation: HAMSTER, LIVER, S-9, AROCLOR 1254 (10% & 30%), Method: PREINCUBATION) was “inactive; negative”, the mutagenic call (Test System: AMES SALMONELLA TYPHIMURIUM, Strain/Indicator: TA98, Metabolic Activation: NONE, Method: PREINCUBATION) was “inactive; negative” and the mutagenic call (Test System: AMES SALMONELLA TYPHIMURIUM, Strain/Indicator: TA98, Metabolic Activation: RAT, LIVER, S-9, AROCLOR 1254 (10% & 30%), Method: PREINCUBATION) was “inactive; negative”. The mutagenic call (Test System: AMES SALMONELLA TYPHIMURIUM, Strain/Indicator: TA100, Metabolic Activation: HAMSTER, LIVER, S-9, AROCLOR 1254 (10% & 30%), Method: PREINCUBATION) was “inactive; negative”, the mutagenic call [6] was “inactive; negative” and the mutagenic call (Test System: AMES SALMONELLA TYPHIMURIUM, Strain/Indicator: TA100, Metabolic Activation: RAT, LIVER, S-9, AROCLOR 1254 (10% & 30%), Method: PREINCUBATION) was “inactive; negative”. For the same compound, the mutagenic call (Test System: AMES SALMONELLA TYPHIMURIUM, Strain/Indicator: TA1535, Metabolic Activation: HAMSTER, LIVER, S-9, AROCLOR 1254 (10% & 30%), Method: PREINCUBATION) was “inactive; negative”, the mutagenic call (Test System: AMES SALMONELLA TYPHIMURIUM, Strain/Indicator: TA1535, Metabolic Activation: NONE, Method: PREINCUBATION) was “inactive; negative” and the mutagenic call (Test System: AMES SALMONELLA TYPHIMURIUM, Strain/Indicator: TA1535, Metabolic Activation: RAT, LIVER, S-9, AROCLOR 1254 (10% & 30%), Method: PREINCUBATION) was “inactive; negative”. The mutagenic call (Test System: AMES SALMONELLA TYPHIMURIUM, Strain/Indicator: TA1537, Metabolic Activation: HAMSTER, LIVER, S-9, AROCLOR 1254 (10% & 30%), Method: PREINCUBATION) was “inactive; negative”, the mutagenic call (Test System: AMES SALMONELLA TYPHIMURIUM, Strain/Indicator: TA1537, Metabolic Activation: NONE, Method: PREINCUBATION) was “inactive; negative” and the mutagenic call (Test System: AMES SALMONELLA TYPHIMURIUM, Strain/Indicator: TA1537, Metabolic Activation: RAT, LIVER, S-9, AROCLOR 1254 (10% & 30%), Method: PREINCUBATION) was “inactive; negative”. The mutagenic call (Test System: UDS RAT HEPATOCYTES, Strain/Indicator: THY INCORP, Metabolic Activation: NONE) was “inactive; negative”.
